Assay results: patent US20250154163A1, “Pyrimidinone-Containing 17-Beta-Hydroxysteroid Dehydrogenase Type 13 Inhibitors” (ENANTA PHARMACEUTICALS, INC., priority 2023, published 2025)

Assays:
[1] = target: T1, Recombinant human 17β-HSD13 (Homo sapiens, UniProt Q7Z5P4); assay: 17β-HSD13 rapid-fire mass spectrometry assay (RF/MS assay); format: biochemical; settings: inhibition of 17β-HSD13, RF/MS assay; HSD17B13 80 nM, LTB4 10 μM, NAD+ 0.5 mM, RT 3 h
T1 construct: host or cells: Sf9 insect cells
T1 sequence (Q7Z5P4 20-300): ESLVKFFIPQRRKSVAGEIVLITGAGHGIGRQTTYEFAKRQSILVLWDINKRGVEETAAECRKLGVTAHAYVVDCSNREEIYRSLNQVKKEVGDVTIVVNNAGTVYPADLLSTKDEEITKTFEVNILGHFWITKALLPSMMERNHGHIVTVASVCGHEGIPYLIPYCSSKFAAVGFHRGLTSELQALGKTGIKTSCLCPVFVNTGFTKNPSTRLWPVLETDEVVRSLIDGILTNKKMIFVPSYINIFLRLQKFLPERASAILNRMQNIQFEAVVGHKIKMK
Summary of the method: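 Purified recombinant human 17β-HSD13 (sf9-expressed, 80 nM) incubated with compound (0–100 μM), 10 μM LTB4 and 0.5 mM NAD+ in 20 mM Tris pH 7.5, 0.005% BSA, 0.01% Tween-20, 3 h at RT. 12-oxo-LTB4 formation quantified by RapidFire MS/MS; percent conversion normalized to controls, IC50 from variable-slope fit, duplicates.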

[2] = system: human precision cut lung slices from a normal donor treated with fibrotic cocktail; assay: Human precision cut lung slice (PCLS) culture, normal donor treated with fibrotic cocktail; format: cell-based; settings: normal donor PCLS treated 8 days with pro-fibrotic cocktail (FC); FIG. 2a, FIG. 3
Experimental: Human PCLS were generated from lung explants of patients with pulmonary fibrosis (donor ID #221028) or normal donor (donor ID #220730). Cryopreserved hPCLSs were obtained from Institute for In Vitro Sciences (IIVS) and maintained with air-liquid interface culture approach under 37° C., 5% CO2 and 95% humidity. hPCLS were cultured in DMEM-F12 (Invitrogen, Cat No. 11330032) containing 0.2% primocin (Invivogen, Cat No. ant-pm-1) and 1% insulin-transferrin-selenium (ITS-G; Invitrogen, Cat No. 41400045), after initial acclimation in acclimation media, including culture media supplemented with 1% antibiotic antimycotic solution (Invitrogen, Cat No. 15240062), 2 mM Hydrocortisone (Millipore Sigma,) and 5 mg/ml 2-phospho-L-abscorbic acid trisodium salt (Millipore Sigma, Cat No. 49752-10G) for 3 days. Slices of tissue were flatly grown in the tissue culture inserts with 0.4 μm pores of a 12-well plate (StemCell Technologies, Cat No. 1001027), supplemented with 100 μl culture media in the apical side containing PCLSs, and 900 μL culture media in the basal compartment. Media were changed every 48 hours. hPCLS were treated and randomly assigned in replicates of 6-8 per condition 7 days after recovery from cryopreservation. […] IPF donor PCLS were collected at day 8 for subsequent RNA isolation and gene expression quantification. […]

COc1ccc(-c2nc3sc4c(O)c(Cl)ccc4c3c(=O)n2Cc2cnco2)c(C2CC2)c1 [Example 26, 7-chloro-2-(2-cyclopropyl-4-methoxyphenyl)-8-hydroxy-3-(oxazol-5-ylmethyl)benzo[4,5]thieno[2,3-d]pyrimidin-4(3H)-one]
IC50 [1]: < 0.1 µM
collagen (COL1A1) mRNA expression [2]: decreased

CS(=O)(=O)c1ccc(-c2nc3sc4c(O)c(Cl)ccc4c3c(=O)n2Cc2cnc(C(F)(F)F)nc2)c(C2CC2)c1 [Example 64, 7-chloro-2-(2-cyclopropyl-4-(methylsulfonyl)phenyl)-8-hydroxy-3-((2-(trifluoromethyl)pyrimidin-5-yl)methyl)benzo[4,5]thieno[2,3-d]pyrimidin-4(3H)-one]
IC50 [1]: < 0.1 µM
collagen (COL1A1) mRNA expression [2]: decreased
